For one test, the system named is circulating WBCs. As to the kind of experiment: Circulating WBC counts (full blood counts) during mobilization. The settings on record: WT mice. The class given is in vivo, mouse. Here is the method:
(§1) To study the role of the plasminogen proteinase system with its plasminogen activators tPA and uPA, and active plasmin in stem/progenitor cell mobilization, mice lacking plasminogen (Plg^−/−), tPA (tPA^−/−), uPA (uPA^−/−) and both activators (tPA^−/−uPA^−/−) were used.^(17, 18) Age- and sex-matched mice were kept in IVC cages. Mobilization was induced either via a single sublethal injection i.v. of the myeloablative agent 5-fluorouracil (5-FU, 200-250 mg/kg), or via administration s.c. of recombinant human G-CSF (Filgrastim, Amgen, 200 μg/kg/d) for five consecutive days.^(12) Peripheral blood (PB) samples were obtained by retro-orbital bleeding under light anesthesia. Full blood counts were determined on the Abbott Cell Dyn 1300 hemocytometer. The number of mobilized hematopoietic progenitor cells (HPCs) in the circulation was determined via methylcellulose-based CFU-C assays (MethoCult, Stem Cell Technologies), per 10^5 peripheral blood mononuclear cells (PB MNCs).^(12) The number of mobilized hematopoietic stem cells (HSCs) in the circulation was quantified via splenic colony-forming assays (CFU-S), and evaluated for long-term engraftment via transplantation into lethally irradiated syngeneic wild-type recipients (9.5 Gy total body irradiation). […]

Test [1] relates to hematopoietic progenitor cells (HPCs). The experiment in a line: Circulating CFU-C assay on PB MNCs (mobilized HPCs). The class given is in vivo, mouse. How it is done:
as §1
Wild-type mice and mice lacking Plg, both tPA and uPA, tPA, uPA, uPAR, PAI-1, α2AP, MMP-2 (kind gift from S. Itohara), MMP-3 (kind gift from J. Mudgett), MMP-9, MMP-12 (kind gift from S. Shapiro), and TIMP-1 (obtained by courtesy of P. Soloway) were used, and housed in barrier cages (individually ventilated) (Heymans et al. (1999), Nat. Med. 5:1135-42). […] Peripheral blood was repetitively sampled by retro-orbital puncture under light anesthesia, and full blood counts (EDTA buffered) were determined on a hemocytometer (Abbott Cell Dyn 1300). Peripheral blood smears were stained using Giemsa-May-Grunwald and at least 200 cells were analyzed. […]

For test [2], the system named is hematopoietic stem cells (HSCs). The experiment in a line: Splenic colony-forming assay CFU-S (mobilized HSCs). The class given is in vivo, mouse. The settings on record: WT mice. How it is done:
as §1

The next test concerns BM MNCs (HPCs). The experiment in a line: Chemotaxis transwell assay, migrated HPCs scored as CFU-Cs. The class given is cell-based, mouse. The settings on record: factor in bottom well, overnight incubation; GM-CSF 100 ng/ml. Here is the method: (§2) Mononuclear cells (MNCs) were prepared via Lympholiter-M (Cedarlane) and density centrifugation. For CFU-C assays, bone marrow cells (5×10^4), or PB MNCs (1×10^5 or 5×10^5) were plated in 35 mm dishes (Stem Cell Technologies) using methylcellulose supplemented with growth factors (MethoCult, Stem Cell Technologies), and colonies were blindly scored after seven and thirteen days, respectively, using an inverted microscope (Luttun et al. (2002), Nat. Med. 8:831-40). […] After five weeks of culture, cells were trypsinized, counted, plated in MethoCult, and CFU-Cs were scored after nine days. […] For CFU-S assays, lethal total body irradiation (9.0 to 9.5 Gy), and transplantation of mobilized PB MNCs (1 to 1.5×10^5) were performed in syngeneic recipients, survival was monitored or splenic colonies were blindly scored after twelve days using a dissection microscope. For bone marrow proliferation index, bone marrow cells from treated mice were plated in 96-well plates, CellTiter96 (Promega) was added, and repetitive colorimetric readings were performed at OD 490 nm. […] After overnight incubation, the migrated non-adherent cells in the bottom wells were collected, counted, plated in MethoCult and CFU-Cs were scored after twelve days.

The next test concerns HSCs. The experiment in a line: Transplantation of mobilized PB MNCs into lethally irradiated WT recipients, survival. The class given is in vivo, mouse. The following applies: donors WT mice treated with G-CSF and agent. How it is done:
as §1

The test system of another test is HSCs in the BM. As to the kind of experiment: HSCs in the BM, LTC-IC assay on AFT024 stromal feeder layers. The settings on record: WT mice, after two days of treatment. The class given is in vivo, mouse. Here is the method: as §2
The subject of the next test is HPCs in the BM. The experiment in a line: CFU-Cs (HPCs) in the BM. Format: in vivo, mouse. The settings on record: WT mice, after two days of treatment. Here is the method:
as §2

The next test concerns BM cells. As to the kind of experiment: BM proliferation index. The class given is in vivo, mouse. The following applies: G-CSF-treated, N=8. Here is the method:
In contrast, HSC translocation and HPC expansion in the bone marrow was completely abolished in G-CSF-treated Plg^−/− mice (FIG. 1, Panels j and k). […] Thus, plasminogen is required for stem/progenitor cell expansion during mobilization.
Mononuclear cells (MNCs) were prepared via Lympholiter-M (Cedarlane) and density centrifugation. For CFU-C assays, bone marrow cells (5×10^4), or PB MNCs (1×10^5 or 5×10^5) were plated in 35 mm dishes (Stem Cell Technologies) using methylcellulose supplemented with growth factors (MethoCult, Stem Cell Technologies), and colonies were blindly scored after seven and thirteen days, respectively, using an inverted microscope (Luttun et al. (2002), Nat. Med. 8:831-40). […] After five weeks of culture, cells were trypsinized, counted, plated in MethoCult, and CFU-Cs were scored after nine days. […] For CFU-S assays, lethal total body irradiation (9.0 to 9.5 Gy), and transplantation of mobilized PB MNCs (1 to 1.5×10^5) were performed in syngeneic recipients, survival was monitored or splenic colonies were blindly scored after twelve days using a dissection microscope. For bone marrow proliferation index, bone marrow cells from treated mice were plated in 96-well plates, CellTiter96 (Promega) was added, and repetitive colorimetric readings were performed at OD 490 nm. […]

Another test has as its system tPA. As to the kind of experiment: In vitro clot lysis with BM plasma samples. Format: in vivo, mouse. The following applies: N=4. An excerpt:
Compared to WT or tPA^−/− mice, uPA^−/− mice had increased mortality and delayed hematopoietic recovery (FIG. 2, Panels b and c). […] Moreover, uPA deficiency reduced the number of BM HSCs (Sca1^+cKit^+) and HPCs (Sca1^+) after 5-FU. Thus, uPA is the responsible plasminogen activator, generating plasmin during 5-FU-induced stem cell mobilization. After G-CSF treatment, the levels of active tPA, but not uPA, increased in the BM plasma, when measured by casein zymography. […] To assess whether the specific up-regulation of tPA in response to G-CSF was functionally relevant, we determined whether tPA^−/− mice were capable of mobilizing stem/progenitor cells in response to G-CSF. […]
BM extracellular fluid (BM plasma) from mice was obtained as described previously (Petit et al. (2002), Nat. Immunol. 3:687-94). […] Murine sKitL and SDF1α protein levels were quantified using commercial available ELISA (R&D Systems, Abingdon, UK). Murine plasminogen, and murine and human suPAR were quantified by home-made ELISA (Heymans et al. (1999), Nat. Med. 5:1135-42; Sier et al. (2004), Thromb. Haemost. 91:403-11). […] MMP-2, MMP-9, and MMP-12 activities were measured using gelatin-zymography, uPA and MMP-3 activities were measured using casein-zymography, as described previously (Heymans et al. (1999), Nat. Med. 5:1135-42). […]

In the next test the test system is sKitL. The experiment in a line: sKitL levels in BM plasma (ELISA). Format: in vivo, mouse. The following applies: WT mice, after G-CSF. How it is done: BM extracellular fluid (BM plasma) from mice was obtained as described previously (Petit et al. (2002), Nat. Immunol. 3:687-94). BM plasma from healthy volunteers was obtained by using the first 10 ml of collection via puncture in the iliac crest under local anesthesia, and immediate anti-coagulation with EDTA. Protein extraction on BM cells was performed as described (Heymans et al. (1999), Nat. Med. 5:1135-42). Murine sKitL and SDF1α protein levels were quantified using commercial available ELISA (R&D Systems, Abingdon, UK). Murine plasminogen, and murine and human suPAR were quantified by home-made ELISA (Heymans et al. (1999), Nat. Med. 5:1135-42; Sier et al. (2004), Thromb. Haemost. 91:403-11). Lyophilized pertussis toxin was obtained from List Laboratories. MMP-2, MMP-9, and MMP-12 activities were measured using gelatin-zymography, uPA and MMP-3 activities were measured using casein-zymography, as described previously (Heymans et al. (1999), Nat. Med. 5:1135-42). Samples from gene-deficient mice were used as negative controls. Plasmin activity of BM plasma or cells (pericellular activity) was measured using substrate colorimetry (S2403), as described previously (Heymans et al. (1999), Nat. Med. 5:1135-42). Fibrinolytic activity was measured using a modified fluorescent-based in vitro clot lysis assay (Heymans et al. (1999), Nat. Med. 5:1135-42). Western blotting was performed on non-reduced samples, which were neutralized with a cocktail of protease inhibitors (Complete Inhibitor, Roche). ECM components/fragments were detected with antibodies against mouse fibronectin and laminin (Sigma), and human D1D2D3 and D2D3 (Andolfo et al. (1999), Thromb. Haemost. 88:298-306), secondary HRP-labeled antibodies (DAKO), and ECL detection system (Amersham Pharmacia).
(In general: ELISA stands for enzyme-linked immunosorbent assay.)

[3] abbreviates: G-CSF plus drug for five days, compared to control vehicle.
Where [4] appears, read: G-CSF in combination with agent for five days, compared to G-CSF alone.

Consider `NC[C@H]1CC[C@H](C(=O)O)CC1` [exacyl, tranexamic acid], for which the “reduction of G-CSF-induced mobilization of WBCs” value in the test on circulating WBCs (setting [3]) is 37%. Moreover, in test [1] (WT mice, G-CSF plus drug for five days, compared to control vehicle), the “reduction of G-CSF-induced mobilization of HPCs” value amounted to 55%. The “reduction of G-CSF-induced mobilization of HSCs” value in test [2] (setting [3]) is given as 49%.

With pertussis toxin, the “mobilization of HPCs” value in test [1] (uPAR−/− mice, single i.v. bolus of 500 ng, after five days) is reported as “efficiently mobilized”.

The molecule “GM-CSF: recombinant human GM-CSF (R&D systems), positive control in chemotaxis assay” displayed an HPCs in transwell with BM MNCs (HPCs) of 1363±323.

Turning to tenecteplase, in the test on circulating WBCs (setting [4]), the “enhanced mobilization of WBCs” value was found to be 87%. Further, the “enhanced mobilization of HPCs” value in test [1] (WT mice, G-CSF in combination with agent for five days, compared to G-CSF alone) turned out to be 65%. For the same molecule, the “enhanced mobilization of HSCs” value in test [2] (setting [4]) was found to be 155%. For the same molecule, the “survival of lethally irradiated WT recipient mice after transplantation of mobilized cells” value with HSCs is listed as “significantly increased”.

B1: G-CSF: recombinant human G-CSF (Filgrastim, Amgen) (protein, chains of the INN, looked up)
chain: MTPLGPASSLPQSFLLKCLEQVRKIQGDGAALQEKLCATYKLCHPEELVLLGHSLGIPWAPLSSCPSQALQLAGCLSQLHSGLFLYQGLLQALEGISPELGPTLDTLQLDVADFATTIWQQMEELGMAPALQPTQGAMPAFASAFQRRAGGVLVASHLQSFLEVSYRVLRHLAQP
For the molecule B1, the “reduction of the number of HSCs in the bone marrow” value with HSCs in the BM is reported as 65%. Further, in the test with HPCs in the BM, the “increase of the number of HPCs in the bone marrow” value was found to be 44%. Further, the “BM proliferation index (percent of proliferating BM cells in control mice)” value in the test on BM cells (Plg−/− mice) worked out at 73±8%; in the test with BM cells (WT mice) it was 167±14%. Further, the “in vitro clot lysis, percentage of a positive standard” value with tPA (BM plasma of G-CSF-treated WT mice) is recorded as 79±2%; in the test with tPA (BM plasma of G-CSF-treated tPA−/− mice), 58±2%. Also, in the test with sKitL, the “sKitL levels in the BM plasma” value is “not increased”.
